Experimental data reported in patent US20170197935A1, “INHIBITORS OF DNA GYRASE FOR THE TREATMENT OF BACTERIAL INFECTIONS” (Vitas Pharma Research Private Limited, priority 2012, published 2017).
Converted amounts (≈) assume the structure as drawn. Like-named read-outs stand apart in the source and are kept apart here.

Legend:
E. faecalis ATCC 51299 = test: MIC by microbroth dilution, E. faecalis ATCC 51299; type: cell-based; conditions: Enterococcus faecalis, ATCC51299, Formula II compounds, read-out: Minimum Inhibitory Concentration (MIC) E. faecalis ATCC 51299
Procedure: (§1) Shown below are the microbiological activities of representative compounds of Formula I of the invention. The compounds were tested by the microbroth dilution method (National committee for Clinical Laboratory Standards, 2011, M07-08) and the Minimum Inhibitory Concentration (MIC) was determined.
(§2) Analysis of microbiological activity of compounds shown below are the microbiological activities of representative compounds of Formula II of the invention. The compounds were tested by the microbroth dilution method as per the reference in Example 1.

Pseudomonas ATCC 27853 = test: MIC by microbroth dilution, Pseudomonas ATCC 27853; type: cell-based; conditions: ATCC27853, Formula II compounds, read-out: Minimum Inhibitory Concentration (MIC) Pseudomonas ATCC 27853
Procedure: as §1, §2

E. coli (ATCC 25922) = test: MIC by microbroth dilution, E. coli ATCC 25922; type: cell-based; conditions: Escherichia coli
Procedure: as §1, §2

[1] = test system: Methicillin resistant Staphylococcus aureus (ATCC 33591); test: MIC by microbroth dilution, MRSA ATCC 33591; type: cell-based
Procedure: as §1, §2

Acinetobacter BAA747 = test: MIC by microbroth dilution, Acinetobacter BAA747; type: cell-based; conditions: Formula II compounds, read-out: Minimum Inhibitory Concentration (MIC) Acinetobacter BAA747
Procedure: as §1, §2

[2] = test system: Moraxella catarrhalis (ATCC 8176); test: MIC by microbroth dilution, Moraxella catarrhalis ATCC 8176; type: cell-based; conditions: ATCC8176
Procedure: (§3) Shown below are the microbiological activities of representative compounds of Formula I of the invention. The compounds were tested by the microbroth dilution method (National committee for Clinical Laboratory Standards, 2011, […]-08) and the Minimum Inhibitory Concentration (MIC) was determined.

[3] = test system: K. pneumoniae (ATCC 700603); test: MIC by microbroth dilution, K. pneumoniae ATCC 700603; type: cell-based; conditions: Klebsiella pneumoniae, ATCC700603, Formula I compounds
Procedure: as §1, §2

[4] = test system: Streptococcus pneumoniae (ATCC 6301); test: MIC by microbroth dilution, Streptococcus pneumoniae ATCC 6301; type: cell-based; conditions: ATCC6301
Procedure: as §3

E. coli Gyrase = biological target: T1, E. coli Gyrase (Escherichia coli, UniProt P0AES4+P0AES6); test: in vitro Gyrase supercoiling assay (Inspiralis kit); type: biochemical; conditions: 1 hour at 37° C., read-out: % inhibition of DNA supercoiling activity; for inhibition at 0.1 µM: 0.1 μM compound; for inhibition at 1 µM: 1 μM compound
T1 construct: purchased Inspiralis
Procedure: To test for target specificity, the activity of compounds was evaluated in an in vitro Gyrase assay using recombinant Gyrase protein as per the instructions of the assay kit (Inspiralis). The assay measures the ability of E. coli Gyrase to convert relaxed plasmid DNA into the supercoiled form. The enzyme is incubated with the substrate (relaxed DNA) in the presence and absence of compounds for 1 hour at 37° C. and the DNA is run on a gel at low voltage for several hours. The gel is then stained with Ethidium bromide and DNA in the different forms is quantified using DNA imaging and quantification software (Image Lab). The activity of the enzyme is proportional to the amount of supercoiled form detected.

[5] = test system: Staphylococcus aureus (ATCC 29213); test: MIC by microbroth dilution, Staphylococcus aureus ATCC 29213; type: cell-based; conditions: ATCC29213
Procedure: as §3

[6] = test system: Enterococcus faecalis (ATCC 29212); test: MIC by microbroth dilution, Enterococcus faecalis ATCC 29212; type: cell-based; conditions: ATCC29212
Procedure: as §3

[7] = biological target: T2, ciprofloxacin resistant recombinant Gyrase protein (with mutation S83L) (Escherichia coli, UniProt P0AES4+P0AES6, S83L); test: Gyrase supercoiling assay with ciprofloxacin resistant Gyrase (S83L); type: biochemical; conditions: read-out: Target specificity: % inhibition of supercoiling activity
T2 construct: purchased Inspiralis
Procedure: The enzyme is incubated with the substrate (relaxed DNA) in the presence and absence of compounds for 1 hour at 37° C. and the DNA is run on a gel at low voltage for several hours. The amount of supercoiled DNA is quantified using DNA imaging and quantification software (Image Lab). The activity of the enzyme is proportional to the amount of supercoiled form detected.

[8] = ATCC25922, Formula II compounds, read-out: Minimum Inhibitory Concentration (MIC) E. coli ATCC 25922
[9] = Formula II compounds, read-out: Minimum Inhibitory Concentration (MIC) MRSA ATCC 33591
[10] = ATCC25922, Formula I compounds, read-out: MIC E. coli (ATCC 25922)
[11] = ATCC33591, Formula I compounds, read-out: MIC Methicillin resistant Staphylococcus aureus (ATCC 33591)

SMILES	MIC (E. faecalis ATCC 51299)	MIC (Pseudomonas ATCC 27853)	MIC (E. coli (ATCC 25922); [8])	MIC [1, 9]	MIC (Acinetobacter BAA747)	MIC [2]	MIC [3]	MIC (E. coli (ATCC 25922); [10])	MIC [4]	inhibition at 0.1 µM (E. coli Gyrase)	inhibition at 1 µM (E. coli Gyrase)	MIC [1, 11]	MIC [5]	MIC [6]	inhibition at 0.1 µM [7]	inhibition at 1 µM [7]
COc1ccc2ncc(=O)n(CCN3CC[C@H](NCc4ccc(C)c([N+](=O)[O-])c4)[C@H](F)C3)c2c1 [VT-03-00134]	0.25 µg/mL (≈ 0.532 µM)	32 µg/mL (≈ 68.2 µM)	2 µg/mL (≈ 4.26 µM)	0.015 µg/mL (≈ 0.0319 µM)	0.5 µg/mL (≈ 1.06 µM)											
COc1ccc2ncc(=S)n(CCN3CCC(NCc4ccc(C)c(C#N)c4)CC3)c2c1 [VT-03-00132]	1 µg/mL (≈ 2.23 µM)	32 µg/mL (≈ 71.5 µM)	2 µg/mL (≈ 4.47 µM)	1 µg/mL (≈ 2.23 µM)	2 µg/mL (≈ 4.47 µM)											
CNC(=O)c1ccc2ncc(=O)n(CCN3CCC(NCc4ccc(C)c(F)c4)CC3)c2c1 [VT-03-00109]	2 µg/mL (≈ 4.43 µM)		16 µg/mL (≈ 35.4 µM)	1 µg/mL (≈ 2.21 µM)												
COc1ccc2ncc(C#N)c(CCN3CCC(NCc4ccc(N(C)C)c([N+](=O)[O-])c4)CC3)c2c1 [VT-03-00064]						0.25 µg/mL (≈ 0.512 µM)	> 32 µg/mL	4 µg/mL (≈ 8.19 µM)	0.12 µg/mL (≈ 0.246 µM)	89.3%	98.1%	0.25 µg/mL (≈ 0.512 µM)	0.12 µg/mL (≈ 0.246 µM)	2 µg/mL (≈ 4.09 µM)		
COc1ccc2ncc(C#N)c(CCN3CCC(NCc4ccc([N+](=O)[O-])c(F)c4)CC3)c2c1 [VT-03-00054]						1 µg/mL (≈ 2.16 µM)	32 µg/mL (≈ 69 µM)	8 µg/mL (≈ 17.3 µM)	0.5 µg/mL (≈ 1.08 µM)			0.12 µg/mL (≈ 0.259 µM)	0.03 µg/mL (≈ 0.0647 µM)	2 µg/mL (≈ 4.31 µM)		
COc1ccc2ncc(C#N)c(CCN3CCC(NCc4cc([N+](=O)[O-])ccc4O)CC3)c2c1 [VT-03-00059]						8 µg/mL (≈ 17.3 µM)	> 32 µg/mL	> 32 µg/mL	2 µg/mL (≈ 4.33 µM)			1 µg/mL (≈ 2.17 µM)	0.25 µg/mL (≈ 0.542 µM)	8 µg/mL (≈ 17.3 µM)		
Cc1ccc(CNC2CCN(CCn3c(=O)cnc4ccc(Cl)nc43)CC2)cc1F [VT-03-00111]	0.5 µg/mL (≈ 1.16 µM)		1 µg/mL (≈ 2.33 µM)	0.125 µg/mL (≈ 0.291 µM)											90.4%	87.6%
Cc1ccc(CNC2CCN(CCn3c(=O)ccc4ccc(C#N)cc43)CC2)cc1[N+](=O)[O-] [VT-03-00065]						> 32 µg/mL	> 32 µg/mL	> 32 µg/mL	4 µg/mL (≈ 8.98 µM)			1 µg/mL (≈ 2.24 µM)	0.25 µg/mL (≈ 0.561 µM)	> 32 µg/mL		
COc1ccc2ncc(=S)n(CCN3CCC(NCc4ccc(C)c(F)c4)CC3)c2c1 [VT-03-00126]		> 32 µg/mL	2 µg/mL (≈ 4.54 µM)	0.5 µg/mL (≈ 1.13 µM)	8 µg/mL (≈ 18.2 µM)											
COc1ccc2ncc(C#N)c(CCN3CCC(NCc4ccc([N+](=O)[O-])cc4)CC3)c2c1 [VT-03-00045]						2 µg/mL (≈ 4.49 µM)		32 µg/mL (≈ 71.8 µM)	0.5 µg/mL (≈ 1.12 µM)	96.5%	96.5%	0.12 µg/mL (≈ 0.269 µM)	0.06 µg/mL (≈ 0.135 µM)	4 µg/mL (≈ 8.98 µM)		
Cc1ccc(CNC2CCN(CCn3c(=O)cnc4ccc(Br)cc43)CC2)cc1F [VT-03-00102]	0.5 µg/mL (≈ 1.06 µM)		8 µg/mL (≈ 16.9 µM)	≤ 0.0075 µg/mL											96.5%	95.3%
O=c1cnc2ccc(F)cc2n1CCN1CCC(NCc2ccc(Cl)c([N+](=O)[O-])c2)CC1 [VT-03-00116]	0.25 µg/mL (≈ 0.544 µM)	16 µg/mL (≈ 34.8 µM)	0.25 µg/mL (≈ 0.544 µM)	0.03 µg/mL (≈ 0.0652 µM)	0.25 µg/mL (≈ 0.544 µM)										96.9%	94.3%
Cc1ccc(CNC2CCN(CCN3C(=O)CNc4ccc(Cl)nc43)CC2)cc1F [VT-03-00107]	0.5 µg/mL (≈ 1.16 µM)		1 µg/mL (≈ 2.32 µM)	0.06 µg/mL (≈ 0.139 µM)												
COc1ccc2ncc(C#N)c(CCN3CCC(NCc4cccc([N+](=O)[O-])c4)CC3)c2c1 [VT-03-00049]						8 µg/mL (≈ 18 µM)	> 32 µg/mL	32 µg/mL (≈ 71.8 µM)	0.5 µg/mL (≈ 1.12 µM)			0.5 µg/mL (≈ 1.12 µM)	0.12 µg/mL (≈ 0.269 µM)	2 µg/mL (≈ 4.49 µM)		
